Data taken from US20060122179A1, “Methods and compositions using JNK inhibitors for treatment and management of central nervous system injury” (priority 2004, published 2006).

Assays:
[1] = Solubility in aqueous media (remark); assay type: physicochemical
[2] = Brain-blood plasma distribution in vivo; design: species or system Sprague-Dawley rats; conditions: rat, 10 mg/kg intravenously, 2 hr post-dose
Experimental: 5-Amino-anthra(9,1-cd)isothiazol-6-one was administered intravenously (10 mg/kg) into the veins of Sprague-Dawley rats. After 2 hr, blood samples were obtained from the animals and their vascular systems were perfused with approximately 100 mL of saline to rid their brains of blood. The brains were removed from the animals, weighed, and homogenized in a 50 mL conical tube containing 10 equivalents (w/v) of methanol/saline (1:1) using a Tissue Tearer (Fischer Scientific). The homogenized material was extracted by adding 600 μL of cold methanol to 250 μL of brain homogenate vortexed for 30 sec and subjected to centrifugation for 5 min. After centrifugation, 600 μL of the resulting supernatant was transferred to a clean tube and evaporated at room temperature under reduced pressure to provide a pellet. […] The brain homogenate analysis samples, plasma analysis samples, and standard analysis samples were analyzed and compared using HPLC by injecting 100 μL of a sample onto a 5 μm C-18 Luna column (4.6 mm×150 mm, commercially available from Phenomenex of Torrance, Calif.) and eluting at 1 mL/min with a linear gradient of 30% aqueous acetonitrile containing 0.1% trifluoroacetic acid to 90% aqueous acetonitrile containing 0.1% trifluoroacetic acid over 8 minutes and holding at 90% aqueous acetonitrile containing 0.1% trifluoroacetic acid for 3 min. with absorbance detection at 450 nm. […]

[3] = test system: rat ventral mesencephalan dopaminergic neurons; assay: [3H]Dopamine cell culture assay (6-OHDA neurotoxicity); assay type: cell-based; conditions: 6-OHDA 30 μM, uptake 22 hrs after exposure
Experimental: Cultures of dopaminergic neurons were prepared according to a modification of the procedure described by Raymon and Leslie (J. Neurochem. 62:1015-1024, 1994). Time-mated pregnant rats were sacrificed on embyronic day 14-15 (crown rump length 11-12 mm) and the embryos removed by cesarean section. The ventral mesencephalon, containing the dopaminergic neurons, was dissected from each embryo. Tissue pieces from approximately 48 embryos were pooled and dissociated both enzymatically and mechanically. An aliquot from the resulting cell suspension was counted and the cells were plated in high glucose DMEM/F12 culture medium with 10% fetal bovine serum at a density of 1×10^5 cells/well of a Biocoat poly-D-lysine-coated 96-well plate. The day following plating was considered 1 day in vitro (DIV). Cells were maintained in a stable environment at 37° C., 95% humidity, and 5% CO2. A partial medium change was performed at 3 DIV. […]
[^3H]Dopamine uptake is used as a measure of the health and integrity of dopaminergic neurons in culture (Prochiantz et al., PNAS 76: 5387-5391, 1979). […] Briefly, cells treated with 6-OHDA in the presence and absence of 5-amino-anthra(9,1-cd)isothiazol-6-one were assessed in the uptake assay 22 hrs after exposure to 6-OHDA. […] Radioactivity was removed and the cultures were washed 3× with ice cold PBS. […]

## Nc1ccc2snc3c2c1C(=O)c1ccccc1-3 [5-amino-anthra(9,1-cd)isothiazol-6-one]
[1]
  solubility in aqueous media: limited solubility
[2]
  brain-drug concentration: approximately 65 nmole/g
[3]
  protection of dopaminergic neurons from 6-OHDA ([3H]dopamine uptake): protects rat ventral mesencephalan neurons from the toxic effects of 6-OHDA
